Experimental data: patent US4125716A, “Methoxymethyl esters of substituted imidazolidinyl-3-methyl-3-cephem-4-carboxylic acids” (Bristol-Myers Company, priority 1977, dated 1978)
Converted amounts (≈) assume the structure as drawn. Where two headings read alike, the source gives them in different places.

How the values were obtained:
[1] = system: Streptococus pneumoniae A9585; test: MIC, tube dilution technique, Streptococcus pneumoniae A9585; assay type: cell-based; conditions: overnight, Nutrient Broth, 37° C., read-out: Minimum Inhibitory Concentration
Text: (§1) The methoxymethyl esters of hetacephalexin and hetacefadroxil are the compounds of Formula I wherein R^1 is hydrogen and hydroxy, respectively.

[2] = system: Klebsiella pneumoniae A15130; test: MIC, tube dilution technique, Klebsiella pneumoniae A15130; assay type: cell-based
Text: (§2) […]. The methoxymethyl esters of hetacephalexin and hetacefadroxil are the compounds of Formula I wherein R^1 is hydrogen and hydroxy, respectively.

Proteus mirabilis A9900 = test: MIC, tube dilution technique, Proteus mirabilis A9900; assay type: cell-based
Text: as §2

[3] = system: Enterobacter cloacae A9656; test: MIC, tube dilution technique, Enterobacter cloacae A9656; assay type: cell-based; conditions: overnight, Nutrient Broth, 37° C., read-out: Minimum Inhibitory Concentration
Text: as §1

Escherichia coli A15119 = test: MIC, tube dilution technique, Escherichia coli A15119; assay type: cell-based
Text: as §2

Proteus morganii A15153 = test: MIC, tube dilution technique, Proteus morganii A15153; assay type: cell-based; conditions: Morganella morganii, overnight, Nutrient Broth, 37° C., read-out: Minimum Inhibitory Concentration
Text: as §1

[4] = system: Serratia marcescens A20019; test: MIC, tube dilution technique, Serratia marcescens A20019; assay type: cell-based; conditions: overnight, Nutrient Broth, 37° C., read-out: Minimum Inhibitory Concentration
Text: as §1

[5] = cited from earlier work
[6] = system: Enterobacter cloacae A9659; test: MIC, tube dilution technique, Enterobacter cloacae A9659; assay type: cell-based; conditions: overnight, Nutrient Broth, 37° C., read-out: Minimum Inhibitory Concentration
Text: as §1

[7] = system: Pseudomonas aeruginosa A9843A; test: MIC, tube dilution technique, Pseudomonas aeruginosa A9843A; assay type: cell-based; conditions: read-out: Minimum Inhibitory Concentration
Text: as §2

[8] = system: Staphylococcus aureus A9537; test: MIC, tube dilution technique, Staphylococcus aureus A9537; assay type: cell-based
Text: as §2

[9] = system: Streptococcus pyogenes A9604; test: MIC, tube dilution technique, Streptococcus pyogenes A9604; assay type: cell-based
Text: as §2

in vivo [10] = conditions: rat, po, 200 mg/kg; for concentration at 0.5 h / concentration at 1 h / concentration at 2 h: Plasma Level
Experimental: (§3) The dosing solutions were stored in an ice bath, used within 6 hours of preparation and an aliquot of each solution was retained for assay.
(§4) Rats in each treatment group were administered 1 ml of dosing solution per 100 g of body weight. The four additional control rats were administered a glycerol formal:deionized water (1:1) solution (1ml/100 g b.w.) to serve as a vehicle control group.
(§5) Four rats from each treatment group and one rat from the vehicle control group were killed 15, 30, 60 and 120 minutes after dosing. The rats were killed by exsanguination at the bifurcation of the femoral arteries while they were under light ether anesthesia. Approximately 10 ml of blood were obtained from each rat in 10 ml disposable syringes which had been previously rinsed with a 1% Na heparin in 0.9% NaCl solution. Each sample was immediately transferred from the syringe, after removing the needle, to a heparinized vacutainer tube, gently inverted a few times to mix the anticoagulant and centrifuged at 3000 rpm for 5 minutes in a refrigerated centrifuge at 4° C. to separate plasma. Plasma was transferred to a polypropylene snap-cap tube and stored at -20° C. until assayed. Lungs and brains were removed immediately after exsanguination, rinsed with ice-cold 0.9% NaCl solution, blotted dry with gauze, wrapped separately in pieces of aluminum foil, placed in dry ice for quick freezing and stored at -20° C. until assayed.
(§6) Plasma samples were diluted with an equal volume of acetone and further diluted with a 1:1 mixture of acetone:1% pH6 phosphate buffer to a concentration approximating the midpoint of the standard curve. Tissues were homogenized with 2 volumes of 1% pH 6 phosphate buffer in a glass homogenizer with a motor driven teflon pestle. Equal volumes of homogenate and acetone were mixed and, following centrifugation, the supernatant was diluted for assay in a manner similar to plasma. Dosing solutions were diluted with acetone:1% pH 6 phosphate buffer (1:1) and assayed similar to plasma.

in vivo [11] = conditions: rat, po, 200 mg/kg; for Kp at 0.5 h / Kp at 1 h / Kp at 2 h / Kp at […]: Brain to Plasma Ratio
Experimental: as §3, §4, §5, §6

in vivo [12] = conditions: rat, po, 200 mg/kg, Lung Level
Experimental: as §3, §4, §5, §6

in vivo [13] = conditions: rat, po, 200 mg/kg, Brain Level
Experimental: as §3, §4, §5, §6

[14] = rat, in vivo, po, 200 mg/kg
Experimental: as §3, §4, §5, §6

[15] = Tissue levels and tissue penetration following oral administration; assay type: in vivo, male Sprague-Dawley rats; conditions: rat
Experimental: as §3, §4
Four rats from each treatment group and one rat from the vehicle control group were killed 15, 30, 60 and 120 minutes after dosing. The rats were killed by exsanguination at the bifurcation of the femoral arteries while they were under light ether anesthesia. Approximately 10 ml of blood were obtained from each rat in 10 ml disposable syringes which had been previously rinsed with a 1% Na heparin in 0.9% NaCl solution. Each sample was immediately transferred from the syringe, after removing the needle, to a heparinized vacutainer tube, gently inverted a few times to mix the anticoagulant and centrifuged at 3000 rpm for 5 minutes in a refrigerated centrifuge at 4° C. to separate plasma. Plasma was transferred to a polypropylene snap-cap tube and stored at -20° C. until assayed. […]

[16] = Antibiotic concentrations of dosing solutions retained for assay (cup-plate assay, CHCl3 extract); assay type: physicochemical; conditions: pH 7.4 phosphate buffer / CHCl3
Experimental: as §3
Dosing solutions were diluted with acetone:1% pH 6 phosphate buffer (1:1) and assayed similar to plasma.

in vivo [17] = conditions: rat, po, 200 mg/kg
Experimental: as §3, §4, §5, §6

[18] = rat, in vivo, po, 200 mg/kg; remark: listed apart in the source
Experimental: as §3, §4, §5, §6

[19] = Klebsiella pneumoniae A15130, overnight, Nutrient Broth, 37° C., read-out: Minimum Inhibitory Concentration
[20] = Proteus mirabilis A9900, overnight, Nutrient Broth, 37° C., read-out: Minimum Inhibitory Concentration
[21] = Escherichia coli A15119, overnight, Nutrient Broth, 37° C., read-out: Minimum Inhibitory Concentration
[22] = A9537, Staph aureus + 50% serum, A9537, overnight, Nutrient Broth, 37° C., read-out: Minimum Inhibitory Concentration
[23] = A9537, Staphylococcus aureus A9537, overnight, Nutrient Broth, 37° C., read-out: Minimum Inhibitory Concentration
[24] = Streptococcus pyogenes A9604, overnight, Nutrient Broth, 37° C., read-out: Minimum Inhibitory Concentration

`CC1=C(C(=O)O)N2C(=O)[C@@H](NC(=O)[C@H](N)c3ccc(O)cc3)[C@H]2SC1` [Cefadroxil, cefadroxil, reference compound] gave an MIC [1] of 1 µg/mL (≈ 2.75 µM), an MIC [2, 19] of 32 µg/mL (≈ 88.1 µM) and an MIC (Proteus mirabilis A9900; [20]) of 8 µg/mL (≈ 22 µM). The MIC [3] was greater than 125 µg/mL, the MIC (Escherichia coli A15119; [21]) was 16 µg/mL (≈ 44 µM) and the MIC (Proteus morganii A15153) was greater than 125 µg/mL. The MIC [4] was greater than 125 µg/mL, the lipid solubility ([5]; known parent compound) was “lipid-insoluble” and the “ionization and water solubility” value ([5]; pH of blood plasma) was “ionized, water-soluble”. It also gave an MIC [6] greater than 125 µg/mL, an MIC [7] greater than 125 µg/mL and an MIC [8, 22] of 2 µg/mL. It also gave an MIC [8, 23] of 1 µg/mL (≈ 2.75 µM) and an MIC [9, 24] of 0.25 µg/mL (≈ 0.688 µM).

Work on `COCOC(=O)C1=C(C)CSC2C(N3C(=O)[C@@H](c4ccccc4)NC3(C)C)C(=O)N12` (stereo partly drawn) [Methoxymethyl Ester of Hetacephalexin] yielded a Tmax (in vivo [10]) of no more than 15 min, a concentration at 0.5 h (in vivo [10]) of 40000 ng/mL and a concentration at 1 h (in vivo [10]) of 36000 ng/mL. It also gave a concentration at 2 h (in vivo [10]) of 11000 ng/mL, a concentration at 0.5 h (in vivo [10]; mean) of 45500 ng/mL and a concentration at 1 h (in vivo [10]; mean) of 34200 ng/mL. The concentration at 2 h (in vivo [10]; mean) was 14500 ng/mL, the MIC [1] was 1 µg/mL (≈ 2.32 µM) and the MIC [2, 19] was 16 µg/mL (≈ 37.1 µM). It also gave an MIC (Proteus mirabilis A9900; [20]) of 8 µg/mL (≈ 18.5 µM), an MIC [3] of 125 µg/mL (≈ 290 µM) and an MIC (Escherichia coli A15119; [21]) of 8 µg/mL (≈ 18.5 µM). The Tmax (in vivo [11]) was roughly 15 min, the Kp at 0.5 h (in vivo [11]) was 0.042 and the Kp at 1 h (in vivo [11]) was 0.047. For the same compound, the Kp at 2 h (in vivo [11]) was 0.046, the Kp at […] (in vivo [11]) was 0.056 and the Kp at 0.5 h (in vivo [11]; mean) was 0.047. The Kp at 1 h (in vivo [11]; mean) was 0.051, the Kp at 2 h (in vivo [11]; mean) was 0.035 and the Kp at […] (in vivo [11]; mean) was 0.058. For the same compound, the Kp (in vivo [11]; brain peak as percent of plasma level) was roughly 0.06, the concentration at 0.5 h (in vivo [12]) was 23000 ng/g and the concentration at 1 h (in vivo [12]) was 22000 ng/g. The concentration at 2 h (in vivo [12]) was 4100 ng/g, the concentration at 0.5 h (in vivo [12]; mean) was 27000 ng/g and the concentration at 1 h (in vivo [12]; mean) was 22300 ng/g. For the same compound, the concentration at 2 h (in vivo [12]; mean) was 4700 ng/g, the MIC (Proteus morganii A15153) was 125 µg/mL (≈ 290 µM) and the MIC [4] was greater than 125 µg/mL. The MIC [6] was 125 µg/mL (≈ 290 µM), the concentration at 0.5 h (in vivo [13]) was 1700 ng/g and the concentration at 1 h (in vivo [13]) was 1700 ng/g. It also gave a concentration at 2 h (in vivo [13]) of 500 ng/g, a concentration at 0.5 h (in vivo [13]; mean) of 2200 ng/g and a concentration at 1 h (in vivo [13]; mean) of 1800 ng/g. The concentration at 2 h (in vivo [13]; mean) was 500 ng/g, the “Lung to Plasma Ratio × 100, mean” value ([14]; 15 min) was 82.6 and the “Lung to Plasma Ratio × 100, mean” value ([14]; 30 min) was 60.0. The “Lung to Plasma Ratio × 100, mean” value ([14]; 60 min) was 67.2, the “Lung to Plasma Ratio × 100, mean” value ([14]; 120 min) was 33.0 and the MIC [7] was greater than 125 µg/mL. The “penetration of tissue cell membranes and blood-brain barrier compared with cephalexin” value [15] was “more readily penetrates tissue cell membranes and crosses the blood-brain barrier”, the “CHCl3 extractability / partition into CHCl3” value [16] was “all of the antibiotic activity was CHCl3 extractable” and the MIC [8, 22] was 2 µg/mL. It also gave an MIC [8, 23] of 1 µg/mL (≈ 2.32 µM), a Kp (in vivo [17]) of roughly 0.83 and a Tmax (in vivo [17]) of roughly 15 min. For the same compound, the absorption [18] was “rapidly absorbed” and the MIC [9, 24] was 0.25 µg/mL (≈ 0.579 µM).

`COCOC(=O)C1=C(C)CSC2C(N3C(=O)[C@@H](c4ccc(O)cc4)NC3(C)C)C(=O)N12` (stereo partly drawn) [Methoxymethyl Ester of Hetacefadroxil] showed an MIC [1] of 1 µg/mL (≈ 2.23 µM), an MIC [2, 19] of 63 µg/mL (≈ 141 µM) and an MIC (Proteus mirabilis A9900; [20]) of 8 µg/mL (≈ 17.9 µM). For the same compound, the MIC [3] was 125 µg/mL (≈ 279 µM), the MIC (Escherichia coli A15119; [21]) was 32 µg/mL (≈ 71.5 µM) and the MIC (Proteus morganii A15153) was 125 µg/mL (≈ 279 µM). It also gave an MIC [4] greater than 125 µg/mL, an MIC [6] greater than 125 µg/mL and an MIC [7] greater than 125 µg/mL. For the same compound, the MIC [8, 22] was 2 µg/mL, the MIC [8, 23] was 1 µg/mL (≈ 2.23 µM) and the MIC [9, 24] was 0.25 µg/mL (≈ 0.559 µM).

Compound `CC1=C(C(=O)O)N2C(=O)[C@@H](NC(=O)[C@H](N)c3ccccc3)[C@H]2SC1` [Cephalexin, cephalexin, reference compound] has an MIC ([2]; Klebsiella pneumoniae, A15130, read-out: Minimum Inhibitory Concentration) of 16 µg/mL (≈ 46.1 µM), an MIC (Proteus mirabilis A9900; Proteus mirabilis, A9900, read-out: Minimum Inhibitory Concentration) of 4 µg/mL (≈ 11.5 µM) and an MIC [3] greater than 125 µg/mL. For the same compound, the MIC (Escherichia coli A15119; Escherichia coli, A15119, read-out: Minimum Inhibitory Concentration) was 8 µg/mL (≈ 23 µM), the MIC (Proteus morganii A15153) was greater than 125 µg/mL and the MIC [4] was greater than 125 µg/mL. For the same compound, the MIC [6] was greater than 125 µg/mL, the MIC [7] was greater than 125 µg/mL and the MIC ([8]; A9537, read-out: Minimum Inhibitory Concentration, Staph aureus + 50% serum, A9537, overnight, Nutrient Broth, 37° C.) was 2 µg/mL. For the same compound, the MIC ([8]; A9537, read-out: Minimum Inhibitory Concentration, Staphylococcus aureus A9537, overnight, Nutrient Broth, 37° C.) was 1 µg/mL (≈ 2.88 µM) and the MIC ([9]; Streptococcus pyogenes, A9604, read-out: Minimum Inhibitory Concentration) was 0.5 µg/mL (≈ 1.44 µM).
